Test [1] has as its target T1, haem-containing recombinant soluble guanylate cyclase (sGC) (Rattus norvegicus, UniProt P20595).
T1 construct: made in house; host or cells: Sf9 insect cells (baculovirus)
T1 sequence (P20595 1-619): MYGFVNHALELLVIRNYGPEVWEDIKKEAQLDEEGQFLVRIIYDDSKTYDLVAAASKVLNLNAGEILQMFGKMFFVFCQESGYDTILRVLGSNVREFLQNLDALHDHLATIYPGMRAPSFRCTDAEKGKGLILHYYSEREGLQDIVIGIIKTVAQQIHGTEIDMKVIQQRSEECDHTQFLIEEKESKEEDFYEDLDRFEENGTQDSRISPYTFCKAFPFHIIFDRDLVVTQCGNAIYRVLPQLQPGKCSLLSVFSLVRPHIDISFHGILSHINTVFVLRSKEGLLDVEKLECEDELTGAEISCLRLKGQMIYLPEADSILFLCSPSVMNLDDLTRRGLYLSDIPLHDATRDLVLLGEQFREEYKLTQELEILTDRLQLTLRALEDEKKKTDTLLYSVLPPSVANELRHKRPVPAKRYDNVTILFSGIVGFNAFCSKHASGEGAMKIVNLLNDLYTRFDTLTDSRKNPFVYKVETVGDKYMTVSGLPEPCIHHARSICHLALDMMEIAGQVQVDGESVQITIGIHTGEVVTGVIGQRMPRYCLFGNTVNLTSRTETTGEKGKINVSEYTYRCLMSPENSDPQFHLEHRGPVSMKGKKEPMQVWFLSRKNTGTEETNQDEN
T1 sequence (P19686 1-690 partner): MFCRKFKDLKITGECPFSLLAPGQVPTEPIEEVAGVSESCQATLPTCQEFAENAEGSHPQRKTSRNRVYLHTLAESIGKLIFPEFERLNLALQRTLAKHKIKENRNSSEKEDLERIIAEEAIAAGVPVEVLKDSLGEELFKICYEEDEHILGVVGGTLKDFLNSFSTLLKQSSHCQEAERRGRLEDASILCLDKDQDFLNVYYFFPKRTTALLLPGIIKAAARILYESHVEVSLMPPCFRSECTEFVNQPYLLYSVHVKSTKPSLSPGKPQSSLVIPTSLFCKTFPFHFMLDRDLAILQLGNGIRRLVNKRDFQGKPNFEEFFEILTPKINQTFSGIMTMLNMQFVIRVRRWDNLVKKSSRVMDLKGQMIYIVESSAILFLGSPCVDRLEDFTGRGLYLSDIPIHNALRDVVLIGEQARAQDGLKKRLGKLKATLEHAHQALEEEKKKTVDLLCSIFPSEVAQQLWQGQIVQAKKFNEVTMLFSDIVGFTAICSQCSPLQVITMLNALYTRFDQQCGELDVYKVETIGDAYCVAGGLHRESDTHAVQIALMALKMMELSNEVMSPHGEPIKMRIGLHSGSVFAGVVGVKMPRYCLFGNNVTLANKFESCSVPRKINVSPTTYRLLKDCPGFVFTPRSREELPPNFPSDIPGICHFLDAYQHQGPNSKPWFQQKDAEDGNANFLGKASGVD
The test is described as follows: Stimulation of recombinant soluble guanylate cyclase (sGC) in vitro, haem-containing enzyme. In kind it is biochemical. The method, then:
(§1) B-1. Stimulation of Recombinant Soluble Guanylate Cyclase (sGC) In Vitro
(§2) Investigations on the stimulation of recombinant soluble guanylate cyclase (sGC) by the compounds according to the invention with and without sodium nitroprusside, and with and without the haem-dependent sGC inhibitor 1H-1,2,4-oxadiazolo[4,3a]quinoxalin-1-one (ODQ), are carried out by the method described in detail in the following reference: M. Hoenicka, E. M. Becker, H. Apeler, T. Sirichoke, H. Schroeder, R. Gerzer and J.-P. Stasch, “Purified soluble guanylyl cyclase expressed in a baculovirus/Sf9 system: Stimulation by YC-1, nitric oxide, and carbon oxide”, J. Mol. Med 77 (1999), 14-23. The haem-free guanylate cyclase is obtained by adding Tween 20 to the sample buffer (0.5% in the final concentration).
The activation of sGC by a test substance is reported as x-fold stimulation of the basal activity. The result for Example 2 is shown in Table 1A, that for Example 23 in Table 1B and that for Example 39 in Table 1C:
[DEA/NO=2-(N,N-diethylamino)diazenolate 2-oxide; ODQ=1H-1,2,4-oxadiazolo-[4,3a]quinoxalin-1-one].

For test [2], the target named is T2, haem-free recombinant soluble guanylate cyclase (sGC) (Rattus norvegicus, UniProt P20595).
T2 construct: made in house; host or cells: Sf9 insect cells (baculovirus)
T2 sequence (P20595 1-619): T1 sequence (P20595 1-619)
T2 sequence (P19686 1-690 partner): T1 sequence (P19686 1-690 partner)
Put plainly: Stimulation of recombinant soluble guanylate cyclase (sGC) in vitro, haem-free enzyme. In kind it is biochemical. The method, then:
as §1, §2
The activation of sGC by a test substance is reported as x-fold stimulation of the basal activity. The result for Example 2 is shown in Table 1A, that for Example 23 in Table 1B and that for Example 39 in Table 1C: […]

Test [3] deals with recombinant guanylate cyclase reporter cell line. The test is described as follows: sGC-activating activity in the CHO reporter cell in vitro. The test is classed as cell-based. The settings on record: read-out: MEC (minimum effective concentration). The method, then:
B-2. Action at a Recombinant Guanylate Cyclase Reporter Cell Line
The cellular action of the compounds according to the invention is determined at a recombinant guanylate cyclase reporter cell line, as described in F. Wunder et al., Anal. Biochem. 32, 104-112 (2005).

The test system of test [4] is saphenous artery rings. Put plainly: Vasorelaxant effect in vitro (phenylephrine-contracted saphenous artery rings). More on the design: species or system Rabbits. The settings on record: rabbit saphenous artery rings; read-out: IC50 (concentration reducing phenylephrine-induced contraction by 50%). The method, then:
B-3. Vasorelaxant Effect In Vitro
Rabbits are anaesthetized and sacrificed by intravenous injection of thiopental sodium (about 50 mg/kg) and exsanguinated. The saphenous artery is removed and divided into rings 3 mm wide. The rings are mounted singly on in each case a pair of triangular hooks open at the end and made of 0.3 mm-thick special wire (Remanium®). Each ring is placed under an initial tension in 5 ml organ baths with Krebs-Henseleit solution which is at 37° C., is gassed with carbogen and has the following composition: NaCl 119 mM; KCl 4.8 mM; CaCl2×2 H2O 1 mM; MgSO4×7H2O 1.4 mM; KH2PO4 1.2 mM; NaHCO3 25 mM; glucose 10 mM; bovine serum albumin 0.001%. The force of contraction is detected with Statham UC2 cells, amplified and digitized via A/D converters (DAS-1802 HC, Keithley Instruments, Munich) and recorded in parallel on chart recorders. Contractions are induced by addition of phenylephrine.
After several (generally 4) control cycles, the substance to be investigated is added in each further run in increasing dosage, and the level of the contraction achieved under the influence of the test substance is compared with the level of the contraction reached in the last preceding run. The concentration necessary to reduce the contraction reached in the preceding control by 50% is calculated from this (IC50). The standard application volume is 5 μl. The proportion of DMSO in the bath solution corresponds to 0.1%.

The test system of test [5] is animal model of pulmonary hypertension. The following applies: cited from earlier work.

Consider `Cc1ccc2oc(-c3ccc(COc4ccccc4CCN(CCCCC(=O)O)C4CCCc5nc(C(=O)O)ccc54)cc3)nc2c1` (single isomer, unassigned; enantiomer 2) [Example 2, (+)-5-{(4-Carboxybutyl)[2-(2-{[4-(5-methyl-1,3-benzoxazol-2-yl)benzyl]oxy}phenyl)ethyl]-amino}-5,6,7,8-tetrahydroquinoline-2-carboxylic acid (Enantiomer 2)], for which the “Effect of combination with the NO donor DEA/NO on sGC stimulation” value in test [1] (combination with DEA/NO) is “no synergistic effect”. Moreover, the “Stimulation (x-fold), haem-containing sGC, basal” value in test [1] (test compound 0.01 μM) amounted to 13.7 ± 1.9 x-fold; in test [1] (test compound 0.1 μM), 31.2 ± 3.5 x-fold; in test [1] (test compound 1.0 μM) it was 40.2 ± 4.0 x-fold; in test [1] (test compound 10 μM), 51.6 ± 6.4 x-fold. The “Stimulation (x-fold), haem-containing sGC, +0.01 μM DEA/NO” value in test [1] (test compound 0.01 μM) is 20.2 ± 3.8 x-fold; in test [1] (test compound 0.1 μM) it was 42.7 ± 7.2 x-fold; in test [1] (test compound 1.0 μM), 56.5 ± 10.5 x-fold; in test [1] (test compound 10 μM), 62.7 ± 11.0 x-fold. For the same molecule, the “Stimulation (x-fold), haem-containing sGC, +10 μM ODQ” value was 63.9 ± 12.2 x-fold in test [1] (test compound 0.01 μM), 129.2 ± 18.9 x-fold in test [1] (test compound 0.1 μM), 172.2 ± 26.3 x-fold in test [1] (test compound 1.0 μM) and 189.5 ± 28.2 x-fold in test [1] (test compound 10 μM). For the same molecule, the “Stimulation (x-fold), haem-free sGC, basal” value in test [2] (test compound 0.01 μM) is 5.2 ± 0.6 x-fold; in test [2] (test compound 0.1 μM) it was 19.9 ± 2.2 x-fold; in test [2] (test compound 1.0 μM) it was 82.7 ± 10.5 x-fold; in test [2] (test compound 10 μM) it was 169.5 ± 23.6 x-fold. Moreover, the minimal effective concentration in test [3] was determined as 1.1 nM. Further, the IC50 in test [4] came out at 3.6 nM.

For `O=C(O)CCCCN(CCc1ccccc1OCc1ccc(CCc2ccccc2)cc1)Cc1ccc(C(=O)O)cc1` [BAY 58-2667, cinaciguat], the Duration of action entry in test [5] (inhalative) is on record as “did not have a sufficient duration of action”. The “Pulmonary arterial pressure after inhalative administration” value in test [5] (microparticles) is “dose-dependent selective reduction”.

(Values after patent US10053428B2, “5-aminotetrahydroquinoline-2-carboxylic acids and their use” (BAYER PHARMA AKTIENGESELLSCHAFT, priority 2012, dated 2018).)
